Data on twelve compounds can be found in PubChem BioAssay (NCI).

Assay in all cases: NCI-60 cell line screen, 48 h
For assay [1], the system named is KM12 colon.
In assay [2] the test system is A549 NSCLC.
For assay [3], the system named is NCI-H23 lung.
For assay [4], the system named is 786-0 renal.
For assay [5], the system named is SW-620 colon.
Assay [6] deals with HT29 colon.
Assay [7] deals with SF-295 CNS.
Assay [8] deals with HL-60(TB) leukemia.
Assay [9] relates to SNB-19 CNS.
In assay [10] the test system is SNB-75 CNS.

Several values for one entry are separate records, joined by “and”; a condition that tells them apart may be missing. Equal entries are not always repeated.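 Five compound concentrations were applied to cells in 96-well plates for 48 hours; endpoints were derived by simple linear interpolation of the resulting dose-response curve. At the GI50, growth is halved. TGI denotes the concentration required for complete inhibition of growth.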

In the case of `Cc1[nH]c(=O)nc2[nH][nH]c(=O)c12`, the TGI in assay [1], in [2], in assay [3], in assay [4], in assay [5] and in assay [6] was above 100 µM each time. For the same compound, the TGI in assay [7] and in assay [8] was above 100 µM each time.

In the case of `CN1CCc2nc(N)nc(-c3nc(N)nc4c3CN(C)CC4)c2C1`, the TGI in assay [1], in assay [2], in assay [3], in assay [9], in [4] and in assay [5] was above 100 µM throughout. Also, the TGI in [6], in assay [7] and in [8] was above 100 µM each time.

Regarding `O=C(N/N=C/c1cc(Br)ccc1O)N/N=C/c1cc(Br)ccc1O`, the TGI in [1], in assay [2], in assay [3], in [9], in [4] and in [5] was above 100 µM throughout. Moreover, the TGI in [6], in assay [7] and in assay [8] was above 100 µM each time.

As to `Cn1c(O)c(C(=O)NC2CCCCC2)c(=O)n(C)c1=S`, the TGI in assay [1] was 27.7 µM; in assay [2], 17.4 µM; in assay [3], 14.5 µM; in assay [9], 71.2 µM; in assay [4], 22.9 µM; in assay [5], 25 µM. Also, the TGI in [7] is 17.8 µM.

Consider `COc1c2c(cc3c1OCO3)[C@]13C=C[C@H](OC)C[C@H]1N(C2)CC3O` (stereo not given in full), for which the TGI in assay [1], in [2], in assay [3], in [9], in assay [4] and in assay [5] was above 100 µM in each case. Also, the TGI in assay [6], in [7] and in assay [8] was above 100 µM each time.

Consider `COc1cc(Cc2nccc3cc(OC)c(OC)cc23)c(C(C)=O)cc1OC`, for which the GI50 in assay [1] was 106 µM; in assay [2], above 750 µM; in assay [3], 67.1 µM; in assay [6], 96.8 µM and 140 µM; in assay [7] it was 224 µM; in assay [10] it was 29.4 µM. Moreover, the GI50 in [8] is above 750 µM. The TGI in [1] is 300 µM; in assay [2] it was above 750 µM; in assay [3] it was 300 µM and > 750 µM; in [4], above 750 µM; in assay [5] it was 300 µM and > 750 µM; in assay [6], 300 µM and 626 µM. Besides, the TGI is above 750 µM in assay [7]; 300 µM and > 750 µM in assay [10]; 130 µM and > 750 µM in assay [8].

Turning to `Cc1cc2ncnn2cc1Nc1ncc2c(n1)n(C1CCOCC1)c(=O)n2C`, the GI50 in [1] was 14.5 µM; in assay [2], 7.22 µM; in assay [3], 14.3 µM; in assay [4], 8.29 µM; in [5] it was 18.1 µM; in [6] it was 6.64 µM. The GI50 was 4.98 µM in assay [7], 1.12 µM in [10] and 23.3 µM in [8]. Also, the TGI is above 100 µM in assay [1]; above 100 µM in [2]; above 100 µM in assay [3]; 94.8 µM in assay [4]; above 100 µM in assay [5]; above 100 µM in assay [6]. In addition, the figures for the TGI in assay [7], in assay [10] and in assay [8] were 48 µM, 6.96 µM and above 100 µM, respectively.

For the compound `COC(=O)C(CC(=O)Nc1ccc(C)cc1)C(=O)C(=O)Nc1c(C(C)C)cccc1C(C)C` (stereo not given), the TGI in assay [2], in assay [3], in assay [9], in assay [4], in [5] and in assay [10] was above 100 µM in each case. In addition, the TGI in [8] is above 100 µM.

Regarding `CC12OC(C(=O)C13CC3)C1C(=O)c3ccc4c(ccc5ccccc54)c3C(=O)C12` (stereo not given), the GI50 in assay [1] is 22.9 µM; in assay [2], 45 µM; in assay [3] it was 24.2 µM; in [9] it was 71.8 µM; in [4], 25.3 µM; in assay [6], 55.9 µM. For the same compound, the GI50 in assay [10] was 51.3 µM; in assay [8], 33.2 µM. For the same compound, the TGI is 59.5 µM in [1]; above 100 µM in assay [2]; above 100 µM in [3]; above 100 µM in assay [9]; above 100 µM in [4]; above 100 µM in assay [6]. The TGI in assay [10] and in assay [8] was above 100 µM in each case.

In the case of `O=C(Nc1ccccc1-c1nc2ccccc2[nH]c1=O)c1ccccc1`, the TGI in assay [1] was above 100 µM; in [2], 69.9 µM; in assay [3], above 100 µM; in assay [9], 60.1 µM; in [4], 31 µM; in assay [5] it was 73.7 µM. Besides, the TGI in assay [6] is above 100 µM; in [7], 47.4 µM; in assay [10], 30.8 µM.

`NNC(=S)N/N=C(/C(=O)Nc1ccc(Cl)c(Cl)c1)C(C1OC(=O)c2ccccc21)[N+](=O)[O-]` (stereo not given): the TGI in [1], in assay [2], in assay [3], in assay [4], in assay [5] and in assay [6] was above 100 µM in each case. Also, the TGI in [7], in [10] and in assay [8] was above 100 µM each time.

On to `C=C1C(=O)O[C@H]2[C@H]1CC/C(COC(=O)NCCCCNC(=O)OC/C1=C/CC[C@@]3(C)O[C@H]3[C@H]3OC(=O)C(=C)[C@@H]3CC1)=C\CC[C@@]1(C)O[C@@H]21`, for which the GI50 was 3.18 µM in [1]; 8.01 µM in assay [2]; 2.18 µM in assay [3]; 1.99 µM in assay [4]; 0.586 µM in assay [5]; 0.605 µM in assay [6]. Further, the GI50 in [7] is 13 µM; in assay [10], 2.19 µM; in assay [8] it was 0.256 µM. For the same compound, the TGI in assay [1] is 10.5 µM; in assay [2], 23.1 µM; in assay [3], 5.54 µM; in [4], 4.26 µM; in assay [5] it was 2.04 µM; in assay [6], 2.05 µM. The TGI in [7] was 27.4 µM; in assay [10], 16.5 µM; in assay [8], 1.08 µM.
